pEC50, pIC50: −log10 of the molar value.
Assays:
PC3 = assay: In vitro cell proliferation assay (CellTiter-Glo), PC3; type: cell-based; settings: Homo sapiens, PC-3; Cell line: PC3; Tissue type: prostate; Mutation Status: PTEN; read-out: EC50 (μmole)
Experimental: (§1) Efficacy of Formula I compounds was measured by a cell proliferation assay employing the following protocol (Promega Corp. Technical Bulletin TB288; Mendoza et al (2002) Cancer Res. 62:5485-5488):
(§2) 1. An aliquot of 100 μl of cell culture containing about 10^4 cells (PC3, Detroit562, or MDAMB361.1) in medium was deposited in each well of a 384-well, opaque-walled plate.
(§3) 2. Control wells were prepared containing medium and without cells.
(§4) 3. The compound was added to the experimental wells and incubated for 3-5 days.
(§5) 4. The plates were equilibrated to room temperature for approximately 30 minutes.
(§6) 5. A volume of CellTiter-Glo® Reagent equal to the volume of cell culture medium present in each well was added.
(§7) 6. The contents were mixed for 2 minutes on an orbital shaker to induce cell lysis.
(§8) 7. The plate was incubated at room temperature for 10 minutes to stabilize the luminescence signal.
(§9) 8. Luminescence was recorded and reported in graphs as RLU=relative luminescence units.
(§10) Alternatively, cells were seeded at optimal density in a 96 well plate and incubated for 4 days in the presence of test compound. Alamar Blue™ was subsequently added to the assay medium, and cells were incubated for 6 hr before reading at 544 nm excitation, 590 nm emission. EC50 values were calculated using a sigmoidal dose response curve fit. The term EC50 refers to the half maximal effective concentration and is the concentration at which a drug induces a response halfway between the baseline and maximum after some specified exposure time. It is commonly used as a measure of drug potency.
(§11) The anti-proliferative effects of Formula I exemplary compounds were measured by the CellTiter-Glo® Assay against various tumor cell lines, including the following: […]

MDA-MB-361.1 = assay: In vitro cell proliferation assay (CellTiter-Glo), MDA-MB-361.1; type: cell-based; settings: Cell line: MDA-MB-361.1; Tissue type: breast; Mutation Status: PI3K; read-out: EC50 (μmole)
Experimental: as §1, §2, §3, §4, §5, §6, §7, §8, §9, §10, §11

p110 alpha PI3K = biological target: T1, p110 alpha PI3K (Homo sapiens, UniProt P42336); assay: p110α (alpha) PI3K binding assay (fluorescence polarization; alternatively radiometric); settings: read-out: IC50, Ki (μmole) PI3K, p110 alpha binding assay
T1 construct: purchased Upstate Cell Signaling Solutions, Charlottesville, Va
Experimental: Binding Assays: Initial polarization experiments were performed on an Analyst HT® 96-384 (Molecular Devices Corp, Sunnyvale, Calif.). […] After an incubation time of 30 minutes at room temperature, the reactions were stopped by the addition of GRP-1 and PIP3-TAMRA probe (Echelon-Inc., Salt Lake City, Utah) 100 nM and 5 nM final concentrations respectively. Read with standard cut-off filters for the rhodamine fluorophore (λex=530 nm; λem=590 nm) in 384-well black low volume Proxiplates® (PerkinElmer, Wellesley, Mass.) Fluorescence polarization values were plotted as a function of the protein concentration, and the EC50 values were obtained by fitting the data to a 4-parameter equation using KaleidaGraph® software (Synergy software, Reading, Pa.). This experiment also establishes the appropriate protein concentration to use in subsequent competition experiments with inhibitors.
After an incubation time of 30 minutes at room temperature, the reactions were stopped by the addition of GRP-1 and PIP3-TAMRA probe (Echelon-Inc., Salt Lake City, Utah) 100 nM and 5 nM final concentrations respectively. Read with standard cut-off filters for the rhodamine fluorophore (λex=530 nm; λem=590 nm) in 384-well black low volume PROXIPLATES® (PerkinElmer, Wellesley, Mass.) Fluorescence polarization values were plotted as a function of the antagonist concentration, and the IC50 values were obtained by fitting the data to a 4-parameter equation in Assay Explorer® software (MDL, San Ramon, Calif.).
The Formula I compound was serially diluted in 100% DMSO. The kinase reaction was incubated for 1 hr at room temperature, and the reaction was terminated by the addition of PBS. IC50 values were subsequently determined using sigmoidal dose-response curve fit (variable slope).

T1 sequence (P42336 whole entry): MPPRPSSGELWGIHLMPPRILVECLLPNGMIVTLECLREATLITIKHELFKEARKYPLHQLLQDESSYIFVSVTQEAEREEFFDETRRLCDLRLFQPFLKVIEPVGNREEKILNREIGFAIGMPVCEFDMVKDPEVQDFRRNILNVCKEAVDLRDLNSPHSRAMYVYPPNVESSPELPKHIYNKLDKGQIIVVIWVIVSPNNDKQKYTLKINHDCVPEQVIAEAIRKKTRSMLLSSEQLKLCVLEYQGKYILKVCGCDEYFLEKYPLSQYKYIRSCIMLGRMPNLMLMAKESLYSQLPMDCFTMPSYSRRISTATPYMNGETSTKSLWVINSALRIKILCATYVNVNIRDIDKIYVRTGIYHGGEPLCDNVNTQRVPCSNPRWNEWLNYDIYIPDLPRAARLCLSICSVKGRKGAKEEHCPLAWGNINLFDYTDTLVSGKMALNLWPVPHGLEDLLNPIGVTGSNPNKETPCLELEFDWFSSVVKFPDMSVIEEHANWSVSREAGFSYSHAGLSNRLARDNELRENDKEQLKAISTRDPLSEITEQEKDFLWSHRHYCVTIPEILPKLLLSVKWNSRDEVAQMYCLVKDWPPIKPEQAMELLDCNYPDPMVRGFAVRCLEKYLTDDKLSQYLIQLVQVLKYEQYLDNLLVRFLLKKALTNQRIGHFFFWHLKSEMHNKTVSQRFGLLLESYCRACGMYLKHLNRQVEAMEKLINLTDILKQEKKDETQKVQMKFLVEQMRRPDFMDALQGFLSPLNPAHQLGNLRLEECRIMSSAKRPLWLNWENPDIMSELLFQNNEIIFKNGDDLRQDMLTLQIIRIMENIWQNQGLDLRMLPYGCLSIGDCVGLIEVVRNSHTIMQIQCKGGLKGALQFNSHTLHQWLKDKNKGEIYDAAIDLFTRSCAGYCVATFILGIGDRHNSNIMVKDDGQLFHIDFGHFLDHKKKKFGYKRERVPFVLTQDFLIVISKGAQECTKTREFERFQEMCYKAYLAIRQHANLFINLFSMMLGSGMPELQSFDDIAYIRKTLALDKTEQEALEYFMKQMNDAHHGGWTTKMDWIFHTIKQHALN
T1 sequence (P27986 whole entry partner): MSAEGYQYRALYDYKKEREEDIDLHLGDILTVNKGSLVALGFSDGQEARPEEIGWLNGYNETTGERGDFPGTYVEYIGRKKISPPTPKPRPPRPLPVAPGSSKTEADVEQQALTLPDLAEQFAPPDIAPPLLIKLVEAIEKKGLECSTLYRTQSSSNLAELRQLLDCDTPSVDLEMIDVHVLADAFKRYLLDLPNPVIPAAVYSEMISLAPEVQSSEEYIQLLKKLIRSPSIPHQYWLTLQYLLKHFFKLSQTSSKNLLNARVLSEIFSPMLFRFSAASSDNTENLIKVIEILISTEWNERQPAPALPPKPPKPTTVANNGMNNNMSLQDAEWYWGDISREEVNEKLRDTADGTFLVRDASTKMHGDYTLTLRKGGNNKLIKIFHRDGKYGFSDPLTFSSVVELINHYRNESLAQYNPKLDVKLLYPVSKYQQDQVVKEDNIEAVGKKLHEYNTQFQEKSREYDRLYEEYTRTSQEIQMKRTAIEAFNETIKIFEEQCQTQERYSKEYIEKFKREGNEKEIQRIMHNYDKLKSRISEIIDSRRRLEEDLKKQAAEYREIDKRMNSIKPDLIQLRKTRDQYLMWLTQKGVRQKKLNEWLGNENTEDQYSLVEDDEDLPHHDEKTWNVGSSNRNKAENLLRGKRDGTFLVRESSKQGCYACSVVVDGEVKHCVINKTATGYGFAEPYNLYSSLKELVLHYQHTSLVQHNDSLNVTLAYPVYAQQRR

Structure (SMILES)	pEC50 (PC3)	pEC50 (MDA-MB-361.1)	pIC50 (p110 alpha PI3K)
CC1(C)CCn2c(nc3c(N4CCOCC4)nc(-c4cnc(N)nc4)nc32)O1 [Compound 115, 5-(7,7-dimethyl-4-morpholino-8,9-dihydro-7h-[1,3]oxazino[2,3-e]purin-2-yl)pyrimidin-2-amine]	5.74	6.02	–
Nc1ncc(-c2nc(N3CCOCC3)c3c(n2)N2CCC[C@H]2CO3)cn1 [Compound 122, 5-((S)-6-Morpholin-4-yl-2,3,3a,4-tetrahydro-1H-5-oxa-7,9,9b-triaza-cyclopenta[a]naphthalen-8-yl)-pyrimidin-2-ylamine]	5.70	5.49	–
CC1(C)OCCn2c1nc1c(N3CCOCC3)nc(-c3ccc(N)cn3)nc12 [Compound 138, 6-(6,6-dimethyl-4-morpholino-8,9-dihydro-6H-[1,4]oxazino[3,4-e]purin-2-yl)pyridine-3-amine]	< 5.00	< 5.00	< 6.16
CC(C)Cn1cc(-c2nc(N3CCOCC3)c3nc4n(c3n2)CCOC4(C)C)cn1 [Compound 148, 2-(1-isobutyl-1H-pyrazol-4-yl)-6,6-dimethyl-4-morpholino-8,9-dihydro-6H-[1,4]oxazino[3,4-e]purine]	< 5.00	< 5.00	< 6.16
CN(C)c1cnc(-c2nc(N3CCOCC3)c3nc4n(c3n2)CCOC4(C)C)cn1 [Compound 163, 5-(6,6-dimethyl-4-morpholino-8,9-dihydro-6H-[1,4]oxazino[3,4-e]purin-2-yl)-N,N-dimethylpyrazin-2-amine]	< 5.00	< 5.00	< 6.16
FC(F)(F)C1OCCn2c1nc1c(N3CCOCC3)nc(-c3cccc4[nH]ncc34)nc12 (stereo not drawn) [Compound 169, 2-(1H-indazol-4-yl)-4-morpholino-6-(trifluoromethyl)-8,9-dihydro-6H-[1,4]oxazino[3,4-e]purine]	5.16	5.36	–
C[C@@H]1CN(c2nc(-c3cnc(N)nc3)nc3c2nc2n3CCOC2(C)C)C[C@H](C)O1 [Compound 171, 5-(4-((2S,6R)-2,6-dimethylmorpholino)-6,6-dimethyl-8,9-dihydro-6H-[1,4]oxazino[3,4-e]purin-2-yl)pyrimidin-2-amine]	5.42	5.51	–
CC1(C)OCCn2c1nc1c(N3C[C@@H]4C[C@H]3CO4)nc(-c3cnc(N)nc3)nc12 [Compound 174, 5-(4-((1S,4S)-2-oxa-5-azabicyclo[2.2.1]heptan-5-yl)-6,6-dimethyl-8,9-dihydro-6H-[1,4]oxazino[3,4-e]purin-2-yl)pyrimidin-2-amine]	5.44	5.47	–
CC1c2nc3c(N4CCOCC4)nc(-c4cnc(N)nc4)nc3n2CCN1C (stereo not drawn) [Compound 176, 5-(6,7-dimethyl-4-morpholino-6,7,8,9-tetrahydropyrazino[2,1-e]purin-2-yl)pyrimidin-2-amine]	5.72	6.05	–

Stronger by pEC50 (PC3), values ahead:

pEC50 (PC3)	pEC50 (MDA-MB-361.1)	pIC50 (p110 alpha PI3K)	Structure (SMILES)
5.85	5.82	–	CC1(C)CN(c2nc(-c3cnc(N)nc3)nc3c2nc2n3CCOC2(C)C)CCO1 [Compound 172, 5-(4-(2,2-dimethylmorpholino)-6,6-dimethyl-8,9-dihydro-6H-[1,4]oxazino[3,4-e]purin-2-yl)pyrimidin-2-amine]
5.89	5.92	–	CC(C)NC(=O)Nc1ccc(-c2nc(N3CCOCC3)c3nc4n(c3n2)CCOC4(C)C)cc1 [Compound 165, 1-(4-(6,6-dimethyl-4-morpholino-8,9-dihydro-6H-[1,4]oxazino[3,4-e]purin-2-yl)phenyl)-3-isopropylurea]
5.96	6.04	–	Oc1cccc(-c2nc(N3CCOCC3)c3nc4n(c3n2)CCOC4C(F)(F)F)c1 (stereo not drawn) [Compound 170, 3-(4-morpholino-6-(trifluoromethyl)-8,9-dihydro-6H-[1,4]oxazino[3,4-e]purin-2-yl)phenol]
6.16	6.37	–	Nc1ncc(-c2nc(N3CCOCC3)c3nc4n(c3n2)CCO[C@H]4C(F)(F)F)cn1 [Compound 139, (R)-5-(4-morpholino-6-(trifluoromethyl)-8,9-dihydro-6H-[1,4]oxazino[3,4-e]purin-2-yl)pyrimidin-2-amine]
6.67	6.63	–	CC1(C)OCCc2c1sc1c(N3CCOCC3)nc(-c3cnc(N)nc3)nc21 [Compound 168, 5-(8,8-Dimethyl-1-morpholin-4-yl-5,8-dihydro-6H-7-oxa-9-thia-2,4-diaza-fluoren-3-yl)-pyrimidin-2-ylamine]
6.73	7.03	–	CC1(C)OCCn2c1cc1c(N3CCOCC3)nc(-c3cnc(N)nc3)nc12 [Compound 177, 5-(8,8-Dimethyl-1-morpholin-4-yl-5,6-dihydro-8H-7-oxa-2,4,4b-triaza-fluoren-3-yl)-pyrimidin-2-ylamine]

Reference: patent US8883799B2, “Tricyclic PI3K inhibitor compounds and methods of use” (Genentech, Inc., priority 2010, dated 2014)
